Test system: HT-29 cells
Test: Comet assay (single cell gel electrophoresis), genotoxic potential
Format: cell-based, Human
Settings: concentration corresponding to quercetin 70 µM

In the case of `O=c1c(O)c(-c2ccc(O)c(O)c2)oc2cc(O)cc(O)c12` [quercetin], the “genotoxic effect / DNA integrity” value is reported as “genotoxic effect”.
